Each compound was assayed on rabbit aorta rings (assay: Vasorelaxant effect in vitro (phenylephrine-contracted rabbit aorta rings)). Conditions: Oryctolagus cuniculus; concentration reducing height of phenylephrine-induced contraction of rabbit aorta rings by 50%; 0.1% DMSO.
Description: Rabbits are stunned by a blow to the back of the neck and are exsanguinated. The aorta is removed, freed of adherent tissue, divided into rings 1.5 mm wide and put singly under tension in 5 ml organ baths containing carbogen-gassed Krebs-Henseleit solution at 37° C. with the following composition (mM): NaCl: 119; KCl: 4.8; CaCl2×2 H2O: 1; MgSO4×7 H2O; 1.4; KH2PO4: 1.2; NaHCO3: 25; glucose: 10. The force of contraction is detected with Statham UC2 cells, amplified and digitized via A/D converters (DAS-1802 HC, Keithley Instruments Munich) and recorded in parallel on chart recorders. A contraction is generated by adding phenylephrine to the bath cumulatively in increasing concentration. After several control cycles, the substance to be investigated is investigated in each further run in increasing dosage in each case, and the height of the contraction is compared with the height of the contraction reached in the last preceding run. The concentration necessary to reduce the height of the control value by 50% (IC50) is calculated from this. The standard application volume is 5 μl, and the DMSO content in the bath solution corresponds to 0.1%.

`Nc1nc(-c2nn(Cc3ccccc3F)c3ncccc23)ncc1OS(=O)(=O)C1CC1` [Example 4] and `CS(=O)(=O)Oc1cnc(-c2nn(Cc3ccccc3F)c3ncccc23)nc1N` [Example 2] are within 1.5-fold of each other in IC50: 710 nM for the first, 580 nM for the second.

Going from `Nc1nc(-c2nn(Cc3ccccc3F)c3ncccc23)ncc1OS(=O)(=O)CCCC(F)(F)F` [Example 7] to `Nc1nc(-c2nn(Cc3ccccc3F)c3ncccc23)ncc1OS(=O)(=O)CCl` [Example 1, 4-Amino-2-[1-(2-fluorobenzyl)-1H-pyrazolo[3,4-b]pyridin-3-yl]-5-pyrimidinyl chloromethanesulfonate], the IC50 rises from 440 nM to 700 nM (1.6-fold). The first is the more potent here.

First: Nc1nc(-c2nn(Cc3ccccc3F)c3ncccc23)ncc1OS(=O)(=O)c1ccccc1 [Example 10]
Second: CCS(=O)(=O)Oc1cnc(-c2nn(Cc3ccccc3F)c3ncccc23)nc1N [Example 3]
The IC50 of the first is 6.7-fold higher: 2020 nM for the first, 300 nM for the second.

Work on `CC(C)S(=O)(=O)Oc1cnc(-c2nn(Cc3ccccc3F)c3ncccc23)nc1N` [Example 5] yielded an IC50 of 520 nM.

Reference: patent US6919345B2, “Sulfonate substituted pyrazol pyridine derivatives” (Bayer Aktiengesellschaft, priority 2001, dated 2005)
